Results: PubChem BioAssay (NCI)
Several values for one entry are separate records, joined by “and”; a condition that tells them apart may be missing. Identical values can stand only once.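 Each compound was tested at five concentrations against cells in 96-well plates for 48 hours. Abbreviation: GI50, concentration required for 50% inhibition of growth. Definition used: TGI = concentration required for complete inhibition of growth.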

Key:
Assay in all cases: DTP human tumour cell line panel, 48 h
RXF-631 renal = test system: RXF-631 renal
XF 498 CNS = test system: XF 498 CNS
DMS 273 small cell lung = test system: DMS 273 small cell lung
LXFL 529 NSCLC = test system: LXFL 529 NSCLC
DMS 114 small cell lung = test system: DMS 114 small cell lung
KM20L2 colon = test system: KM20L2 colon
M19-MEL melanoma = test system: M19-MEL melanoma
HOP-18 NSCLC = test system: HOP-18 NSCLC
MDA-N = test system: MDA-N

Row | SMILES | TGI (RXF-631 renal) [µM] | TGI (XF 498 CNS) [µM] | TGI (DMS 273 small cell lung) [µM] | TGI (LXFL 529 NSCLC) [µM] | TGI (DMS 114 small cell lung) [µM] | TGI (KM20L2 colon) [µM] | TGI (M19-MEL melanoma) [µM] | TGI (HOP-18 NSCLC) [µM] | TGI (MDA-N) | also measured
1 | CCc1cccc(C)c1N1C(=O)C(=O)C(c2nc3ccccc3o2)/C(=N/NC(=S)NN)C1=O (stereo not given) | > 100 | > 100 | > 100 | > 100 | > 100 | > 100 | > 100 | – | – | –
2 | CC12CC/C(=N/NC(N)=O)C3C1CCCC32 | > 100 | – | > 100 | > 100 | > 100 | > 100 | > 100 | > 100 | – | –
3 | CCC(C)C(=O)O[C@H]1C(=O)O[C@@H]2C[C@H]3C(C)=CC(=O)[C@@H](O)[C@]3(C)[C@H]3[C@@H](O)[C@H](O)[C@@]4(C)OC[C@]32[C@@H]14 (stereo not given in full) | – | 0.0819 | 0.0468 | 0.123 | 0.0431 | 0.31 | 0.0909 | 0.596 | 0.0543 µM | –
4 | CN(C)CCCOc1ccc(/C=C2/CCC/C(=C/c3ccc(OCCCN(C)C)cc3)C2=O)cc1 | – | – | 2.96 | 7.12 | 3.11 | 0.537 | – | 12.3 | – | –
5 | CCC[CH2][Sn]1([CH2]CCC)[O]C(=O)CN=C(C)c2ccccc2[O]1 | – | 3.19 | 2.74 | 1.28 | 0.655 | 2.97 | 1.8 | 2.85 | – | GI50 (XF 498 CNS): 1.74 µM; GI50 (DMS 273 small cell lung): 1.39 µM; GI50 (LXFL 529 NSCLC): 0.254 µM; GI50 (DMS 114 small cell lung): 0.227 µM; GI50 (KM20L2 colon): 1.55 µM; GI50 (HOP-18 NSCLC): 1.5 µM; GI50 (M19-MEL melanoma): 0.528 µM
6 | C=C1C[C@@H](O)[C@@H](Br)C(C)(C)[C@]12CCC(C)(Br)C(Cl)C2 (stereo not given in full) | – | – | – | – | – | – | – | – | > 50 µM and 36.2 µM | GI50 (MDA-N): 17.7 µM
7 | COC(=O)C(=O)C(C#N)c1cccc(Cl)c1 (stereo not given) | – | > 100 | > 100 | > 100 | – | > 100 | > 100 | > 100 | – | –
8 | C=C[C@H]1CN2CCc3c([nH]c4c([C@@H]5CCCN5C)c(O)ccc34)[C@@H]2C[C@@H]1C[C@H]1c2[nH]c3ccccc3c2CCN1C | – | – | – | – | – | – | – | – | 3.06 µM and 3.3 µM | GI50 (MDA-N): 1.5 µM
9 | CC12CCCC(C#N)(C1)OC2=O (stereo not given) | > 100 | > 100 | > 100 | > 100 | – | > 100 | > 100 | – | – | –
10 | Cc1ccccc1C=NC12CC3CC(CC(C3)C1)C2 | > 100 | – | > 100 | > 100 | > 100 | > 100 | > 100 | > 100 | – | –
11 | CC1NC(C(=O)O)Cc2cc(O)c(O)cc21 (stereo not given) | – | – | – | – | – | – | – | – | > 100 µM | –
12 | O=C(CN(Cc1ccccc1)Cc1ccccc1)N1CCc2c([nH]c3ccccc23)C1c1cccnc1 (stereo not given) | – | 65.8 | 82.8 | > 100 | 72.8 | 25.5 | 31.4 | > 100 | – | –
13 | O=CC1CCC=CC1NC(=O)OCc1ccccc1 (stereo not given) | – | > 100 | > 100 | > 100 | 53.6 | – | > 100 | > 100 | – | –
14 | CCC1(OC(=O)CNC)C(=O)OCc2c1cc1n(c2=O)Cc2cc3ccccc3nc2-1 (stereo not given) | 0.0575 | – | < 0.0144 | 3.64 | – | 2.05 | 0.823 | 0.812 | 0.386 µM | –
15 | N#CC(C(=O)/C(=N/NC(=O)c1ccccc1O)C(C#N)c1ccc(Br)cc1)c1ccc(Br)cc1 (stereo not given) | 28.5 | 26.6 | 26.8 | 13.4 | 33 | 29.2 | 25.2 | 20.5 | – | –
16 | O=C1C(Cl)=C(Cl)C(=O)N1c1ccccc1Cl | – | > 100 | > 100 | > 86.3 | > 100 | > 100 | > 100 | > 100 | – | –
17 | CC[O-].CC[O-].COc1ccc(C(=O)[CH-]C(C)=O)cc1OC.COc1ccc(C(=O)[CH-]C(C)=O)cc1OC.[Ti+4] | > 100 | – | > 100 | > 100 | > 100 | > 100 | – | > 100 | – | GI50 (RXF-631 renal): 49.4 µM; GI50 (DMS 273 small cell lung): 44.4 µM; GI50 (LXFL 529 NSCLC): 38.7 µM; GI50 (DMS 114 small cell lung): > 100 µM; GI50 (KM20L2 colon): 53.1 µM; GI50 (HOP-18 NSCLC): 29.8 µM
18 | Cn1cnc([N+](=O)[O-])c1Sc1nc2ccccc2o1 | 15.1 | 19.7 | 9.93 | 12.9 | 4.89 | 10.1 | 23.7 | 1.36 | – | –
19 | Cc1cc(Cl)ccc1NC(=O)CC1SC(=NC(=O)c2ccccc2Cl)NC1=O (stereo not given) | – | 32.7 | 37 | 32.3 | 41.8 | > 100 | 35.8 | – | – | –

Row | SMILES | TGI (RXF-631 renal) [µM] | TGI (XF 498 CNS) [µM] | TGI (DMS 273 small cell lung) [µM] | TGI (LXFL 529 NSCLC) [µM] | TGI (DMS 114 small cell lung) [µM] | TGI (KM20L2 colon) [µM] | TGI (M19-MEL melanoma) [µM] | TGI (HOP-18 NSCLC) [µM] | TGI (MDA-N) | also measured
20 | COC(=O)CC1C2(C)C3=C(C)C(c4ccoc4)CC3OC2C2OC(=O)C3(C)C=CC(=O)C1(C)C23 (stereo not given) | – | – | – | – | – | – | – | – | 2.93 µM | –
21 | O=C(Nc1ccccc1)n1cc(-c2ccccn2)c(N2CCOCC2)n1 | – | > 100 | 42.1 | > 100 | > 100 | 8.69 | > 100 | > 100 | – | –
22 | N#CC(C#N)=Cc1ccc(C(O)P(=O)(O)O)cc1 (stereo not given) | > 100 | > 100 | > 100 | > 100 | > 100 | > 100 | > 100 | > 100 | – | –
23 | CC(=O)n1nnc2ccc([N+](=O)[O-])cc21 | – | > 100 | > 100 | > 100 | > 100 | > 100 | > 100 | > 100 | – | –
24 | Cn1nc(-c2ccccc2)c2c(/C=C/c3ccc(Cl)cc3)onc2c1=O | > 100 | 43.6 | > 100 | > 100 | > 100 | 69.5 | > 100 | 26.8 | – | –
25 | NC(CP(=O)(O)O)C(=O)O (stereo not given) | – | – | – | – | – | – | – | – | > 100 µM | –
26 | COC(=O)C(=NNc1ccccc1[N+](=O)[O-])C(=O)OC | – | > 100 | > 100 | > 100 | – | > 100 | > 100 | > 100 | – | –
27 | COc1ccc(NC(=S)C#N)cc1 | – | – | – | – | – | – | – | – | > 100 µM | –
28 | CCOC(=O)NC(=O)c1cn(CCCCCCCCCCC(=O)NCCCN2CCN(CCCNC(=O)CCCCCCCCCCn3cc(C(=O)NC(=O)OCC)c(=O)[nH]c3=O)CC2)c(=O)[nH]c1=O | – | > 100 | > 100 | > 100 | > 100 | > 100 | > 100 | > 100 | – | –
29 | N#CC(C(=O)CCC(=O)Nc1ccc(Cl)cc1)c1ccc(Cl)cc1 (stereo not given) | > 100 | > 100 | > 100 | > 100 | > 100 | > 100 | > 100 | > 100 | – | –
30 | Cc1cc2nc3c(=O)[nH]c(=O)nc-3n(CC(O)C(O)C(O)CO)c2cc1N (stereo not given) | > 100 | – | > 100 | > 100 | > 100 | – | > 100 | > 100 | – | –
31 | O=C1CC(C(=O)O)Cc2c(Br)ccc(O)c21 (stereo not given) | – | – | – | – | – | – | – | – | > 100 µM | –
32 | C/C=C(\C)c1cc(=O)c2c(C)cc3c(c2o1)C(OC)(OC(C)=O)c1c(O)c(C2CC(C)(N(C)C)C(OC(C)=O)C(C)O2)cc(C2CC(N(C)C)C(OC(C)=O)C(C)O2)c1C3=O (stereo not given) | – | – | – | – | – | – | – | – | 4.71 µM | –
33 | N#CCCN(C1=NN(C(=O)CC(=O)Nc2ccc(Cl)cc2)C(c2ccccc2)C1)c1ccc(Cl)cc1 (stereo not given) | > 100 | > 100 | > 100 | > 100 | > 100 | > 100 | > 100 | > 100 | – | –
34 | O=C1c2cccc([N+](=O)[O-])c2C(=O)c2nccnc21 | – | – | 12.3 | – | 2.3 | 6.16 | 0.276 | 3.06 | – | –
35 | CCOC(=O)C1=C(C)NC(C)=C(C(=O)OCCNC(=O)c2ccc(N=[N+]=[N-])cc2)C1c1ccccc1C(F)(F)F (stereo not given) | – | – | – | – | – | – | – | – | 21.5 µM | –
36 | CC(=O)NC(CS)C(=O)O (stereo not given) | – | – | – | – | – | – | – | – | > 100 µM | –
37 | O=C(O)CCC(=O)Oc1ccc(O)c2c1CCCC2=O | – | 5.84 | > 100 | > 100 | > 100 | > 100 | > 100 | > 100 | – | –
